The source of these data is patent US12365658B2, “Benzothia(di)azepine compounds and their use as bile acid modulators” (Albireo AB, priority 2021, dated 2025).

Data set [1] can be described thus: Bidirectional permeability assay (Caco-2 cells). Type of data set: in vitro ADME. The note with it: human, 10 μM in FaSSIF buffer; for Papp A→B at 120 min, 10 μM: Caco-2, pH 7.4, absorptive direction (A2B); for Papp B→A at 120 min, 10 μM: Caco-2, pH 7.4, secretory direction (B2A). Here is the method:
Bidirectional Permeability Assay (Caco-2 Cells)
Caco-2 cells (Evotec) were seeded at a density of 70,000 cells/well in Millicell® 24-well cell culture insert plates and maintained in an incubator (37° C., 5% CO2, 95% RH) for 21 days with media change on alternate days.
Stock solutions (10 mM) of the test compounds, atenolol (low permeability marker), propranolol (high permeability marker) and digoxin (substrate for P-gp transport pathway) were prepared in dimethylsulfoxide (DMSO). An intermediate stock solution (1 mM) was prepared by diluting 10 μL of 10 mM master stock solution with 90 μL of neat DMSO. A working stock solution (10 μM) was prepared by diluting 50 μL of 1 mM with 4950 μL of FaSSIF buffer. Post addition of compounds to the FaSSIF, samples were subjected to sonication for 2 hours, and centrifuged at 4000 RPM for 30 minutes at 37° C. The 4 mL of resultant supernatant was directly used in the assay. The final DMSO concentration in the transport experiments was 1%.
On the day of assay, Caco-2 monolayers were washed twice with transport buffer (HBSS, pH 7.4) and pre-incubated for 30 min (37° C., 5% CO2, 95% RH) in an incubator. The electrical resistance of the monolayers was measured with a Millicell®-ERS system. Monolayers with trans-epithelial electrical resistance (TEER) values greater than 350 ohm·cm^2 were selected for the assay.
The assay was conducted in absorptive direction (A2B) and secretory (B2A) directions. Transport experiments were initiated by addition of transport assay buffer (FaSSIF buffer prepared in HBSS) consisting of compounds to the donor compartment (apical chamber A-B; basolateral chamber B-A) in duplicate (n=2) wells. Drug free HBSS buffer (pH 7.4) containing 1% bovine serum albumin (BSA) was introduced to the receiver (A-B-basolateral; B-A-Apical) compartments. The volumes of apical and basolateral compartments were 0.4 and 0.8 mL, respectively. After adding dosing solution, plates were incubated in an incubator for 120 minutes at 37° C. After 120 minutes, donor and receiver samples were collected and matrix matched (1:1, 30 μL study sample+30 μL blank buffer) with the opposite buffer. Dosing samples matrix matched (1:1, 30 μL study sample+30 μL blank buffer) with the opposite buffer. Samples were processed by adding acetonitrile containing internal standard (60 μL study sample+200 μL acetonitrile containing internal standard-Tolbutamide, 500 ng/mL). Samples were vortexed and centrifuged at 4000 rpm for 10 minutes. The obtained supernatant (100 μL) was diluted with 100 μL of water and transferred to fresh 96 well plates. The concentration of compounds in the samples was analyzed by liquid chromatography tandem mass spectrometry (LC-MS/MS) method using discovery grade bio-analytical method, as applicable.
The mean apparent permeability (Papp, ×10^−6 cm/sec) of the test compounds, atenolol, propranolol and digoxin were calculated as follows:
where dq/dt=rate of transport (rate of transport of compound in the receiver compartment), C0=initial concentration in the donor compartment, A=surface area of the effective filter membrane.
Background: Passage across Caco-2 layers is used to estimate intestinal permeability.

The target of a further data set is T1, Human IBAT (Homo sapiens, UniProt Q12908).
T1 construct: expressed in transfected cells; kept under Puromycin selection
T1 sequence (Q12908 1-348): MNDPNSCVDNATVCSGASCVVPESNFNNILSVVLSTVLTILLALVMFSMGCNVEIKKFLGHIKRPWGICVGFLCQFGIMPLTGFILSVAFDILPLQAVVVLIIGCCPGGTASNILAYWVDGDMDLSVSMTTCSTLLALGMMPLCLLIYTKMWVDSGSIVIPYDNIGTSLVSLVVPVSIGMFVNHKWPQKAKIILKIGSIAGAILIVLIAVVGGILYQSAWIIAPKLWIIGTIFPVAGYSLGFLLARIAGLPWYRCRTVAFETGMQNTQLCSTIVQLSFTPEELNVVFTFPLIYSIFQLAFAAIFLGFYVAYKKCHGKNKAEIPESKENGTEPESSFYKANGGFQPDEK
In words: IBAT (h/m) assay, human IBAT-overexpressing cells, 3H-taurocholic acid uptake. It counts as cell-based. The note with it: 0.25 μM 3H-taurocholic acid and 5 μM cold taurocholic acid, 20 minutes, highest test concentration 10 μM, read-out: hIBAT IC50. How it is done:
IBAT (h/m) Assay Protocol
10,000 cells (Human or Mouse IBAT-overexpressing cells) were seeded in 96-wells plate (Corning CLS3809) in 200 μL MEM-alpha medium (Gibco 12571-063) supplemented with 10% FBS (Gibco 10438026) containing Puromycin (Gibco A1113803) (10 μg/mL) and incubated at 37° C. in 5% CO2 for 48 hours. After incubation, media was decanted from the wells and cells were washed two times with 300 μL of basal MEM-alpha medium (FBS-free). After decanting basal MEM-alpha medium each time, plates were tapped against paper towel to ensure maximum removal of residual media. Test inhibitor dilutions (highest test concentration being 10 μM, 3-fold serial dilution, 10 points) prepared in DMSO (Sigma D2650) were added in incubation mix (maintaining 0.2% final DMSO concentration) containing 0.25 μM 3H-taurocholic acid (ARC ART-1368) and 5 μM of cold taurocholic acid (Sigma T4009). 50 μL of incubation mix containing test inhibitors was then added to the wells (in duplicate) and the plates were incubated for 20 minutes in a CO2 incubator at 37° C. After incubation, the reaction was stopped by keeping the plates on ice water mix for 2-3 minutes and then the incubation mix was aspirated completely from the wells. The wells were washed two times with 250 μL of chilled unlabelled 1 mM taurocholic acid dissolved in HEPES (Gibco 15630080)-buffered (10 mM) HBSS (Gibco 14175079) (pH 7.4). The plates were tapped against a paper towel after every wash to ensure maximum removal of blocking buffer.
100 μL of MicroScint-20 (PerkinElmer 6013621) was added to the wells and kept overnight at room temperature before reading the plates in TopCount NXT™ Microplate Scintillation and Luminescence Counter from PerkinElmer under 3H Test protocol (set at 120 seconds reading time per well).
Preparation of Test Compound Dilutions
All test compounds were provided in powder form at room temperature. 10 mM DMSO stocks of the test compounds were prepared, aliquoted and stored at −20° C. From the 10 mM DMSO stock of the compounds, a 3-fold serial dilution in DMSO was prepared to get a total of 10 dilutions of the test compounds. 0.5 μL of this dilution in DMSO was added to 250 μL of FBS-free basal media containing 3H-taurocholic acid and cold taurocholic acid to prepare the incubation mixture.

Molecules are shown by their SMILES.

The term Papp A→B denotes the apparent permeability from the apical to the basolateral side of a cell layer. A lower Papp A→B goes with slow passage. As a reminder, the Papp B→A is how fast a substance crosses the layer from the basolateral side. For orientation: IC50 means the concentration that gives 50% inhibition. As for `CCCCC1CN(c2ccccc2)c2cc(SC)c(OCC(OC)C(=O)O)cc2S(=O)(=O)N1C` (single isomer, unassigned) [32, diastereomer 1], in data set [1], the Papp A→B at 120 min, 10 μM was 5.2 ×10⁻⁶ cm/s and the Papp B→A at 120 min, 10 μM was found to be 15.9 ×10⁻⁶ cm/s. For the same molecule, the IC50 on Human IBAT is 2400 nM.

As for `CCCCC1CN(c2ccccc2)c2cc(SC)c(OCC(C)(OC)C(=O)O)cc2S(=O)(=O)N1C` (single isomer, unassigned) [Example 23, 3-((3-Butyl-2-methyl-7-(methylthio)-1,1-dioxido-5-phenyl-2,3,4,5-tetrahydro-1,2,5-benzothiadiazepin-8-yl)oxy)-2-methoxy-2-methylpropanoic acid], in data set [1], the Papp A→B at 120 min, 10 μM is 10.6 ×10⁻⁶ cm/s and the Papp B→A at 120 min, 10 μM was determined as 30.2 ×10⁻⁶ cm/s. The IC50 on Human IBAT amounted to 257 nM.

Take `CCCCC1CN(c2ccccc2)c2cc(SCC)c(OCC(C)(C)C(=O)O)cc2S(=O)(=O)N1C` (single isomer, unassigned) [6, enantiomer 2]: in data set [1], the Papp A→B at 120 min, 10 μM stood at 8.6 ×10⁻⁶ cm/s and the Papp B→A at 120 min, 10 μM came to 6.5 ×10⁻⁶ cm/s. The IC50 on Human IBAT worked out at 290 nM.

Take `CCCCC1CN(c2ccccc2)c2cc(SC)c(OCC(C)(C)C(=O)O)cc2S(=O)(=O)N1C` (single isomer, unassigned) [2, enantiomer 2]: in data set [1], the Papp A→B at 120 min, 10 μM is 13.2 ×10⁻⁶ cm/s and the Papp B→A at 120 min, 10 μM was found to be 15.2 ×10⁻⁶ cm/s. Moreover, the IC50 at Human IBAT was 682 nM.

For the molecule `CCCCC1CN(c2ccccc2)c2cc(SC)c(OCC(C)(OC)C(=O)O)cc2S(=O)(=O)N1C` (single isomer, unassigned) [24, diastereomer 1], the IC50 at Human IBAT turned out to be 1030 nM.

On to `CCCCC1CN(c2ccc(F)cc2)c2cc(SC)c(OCC(C)(C)C(=O)O)cc2S(=O)(=O)N1C` (centres unmarked) [Example 13, 3-((3-butyl-5-(4-fluorophenyl)-2-methyl-7-(methylthio)-1,1-dioxido-2,3,4,5-tetrahydro-1,2,5-benzothiadiazepin-8-yl)oxy)-2,2-dimethylpropanoic acid], for which, in data set [1], the Papp A→B at 120 min, 10 μM worked out at 10.8 ×10⁻⁶ cm/s and the Papp B→A at 120 min, 10 μM turned out to be 8.6 ×10⁻⁶ cm/s. The IC50 at Human IBAT amounted to 360 nM.

`CCCCC1CN(c2ccccc2)c2cc(SC)c(OCC3(C(=O)O)CC3)cc2S(=O)(=O)N1C` (centres unmarked) [Example 3, 1-(((3-Butyl-2-methyl-7-(methylthio)-1,1-dioxido-5-phenyl-2,3,4,5-tetrahydro-1,2,5-benzothiadiazepin-8-yl)oxy)methyl)cyclopropane-1-carboxylic acid]: in data set [1], the Papp A→B at 120 min, 10 μM turned out to be 20.8 ×10⁻⁶ cm/s and the Papp B→A at 120 min, 10 μM is 12.9 ×10⁻⁶ cm/s. For the same molecule, the IC50 on Human IBAT amounted to 274 nM.

In data set [1], `CCCCC1CN(c2ccccc2)c2cc(SCC)c(OCC(C)(C)C(=O)O)cc2S(=O)(=O)N1C` (centres unmarked) [Example 5, 3-((3-Butyl-7-(ethylthio)-2-methyl-1,1-dioxido-5-phenyl-2,3,4,5-tetrahydro-1,2,5-benzothiadiazepin-8-yl)oxy)-2,2-dimethylpropanoic acid] displayed a Papp A→B at 120 min, 10 μM of 9.4 ×10⁻⁶ cm/s and a Papp B→A at 120 min, 10 μM of 7.2 ×10⁻⁶ cm/s. Besides, the IC50 on Human IBAT amounted to 615 nM.

On to `CCCCC1CN(c2ccccc2)c2cc(SC)c(OCC(C)(OC)C(=O)O)cc2S(=O)(=O)N1C` (single isomer, unassigned) [24, diastereomer 2], for which the IC50 on Human IBAT is 412 nM.

Turning to `CCCCC1CN(c2ccccc2)c2cc(SCC)c(OCC3(C(=O)O)CC3)cc2S(=O)(=O)N1C` (centres unmarked) [Example 7, 1-(((3-Butyl-7-(ethylthio)-2-methyl-1,1-dioxido-5-phenyl-2,3,4,5-tetrahydro-1,2,5-benzothiadiazepin-8-yl)oxy)methyl)cyclopropane-1-carboxylic acid], in data set [1], the Papp A→B at 120 min, 10 μM was 8.1 ×10⁻⁶ cm/s and the apparent permeability from basolateral to apical (Papp B→A) at 120 min, 10 μM amounted to 3.8 ×10⁻⁶ cm/s. Besides, at Human IBAT, the IC50 was 405 nM.

As to `CCCCC1CN(c2ccccc2)c2cc(SCC)c(OCC3(C(=O)O)CC3)cc2S(=O)(=O)N1C` (single isomer, unassigned) [8, enantiomer 1], in data set [1], the Papp A→B at 120 min, 10 μM came to 15.8 ×10⁻⁶ cm/s and the apparent permeability from basolateral to apical (Papp B→A) at 120 min, 10 μM came to 5 ×10⁻⁶ cm/s. In addition, the IC50 on Human IBAT came out at 166 nM.

In data set [1], `CCCCC1CN(c2ccccc2)c2cc(SC)c(OCC(C)(OC)C(=O)O)cc2S(=O)(=O)N1C` (centres unmarked) [Example 22, 3-((3-Butyl-2-methyl-7-(methylthio)-1,1-dioxido-5-phenyl-2,3,4,5-tetrahydro-1,2,5-benzothiadiazepin-8-yl)oxy)-2-methoxy-2-methylpropanoic acid] displayed a Papp A→B at 120 min, 10 μM of 11.7 ×10⁻⁶ cm/s and a Papp B→A at 120 min, 10 μM of 21.5 ×10⁻⁶ cm/s. Moreover, on Human IBAT, the IC50 was found to be 428 nM.

`CCCCC1CN(c2ccc(F)cc2)c2cc(SCC)c(OCC(O)C(=O)O)cc2S(=O)(=O)N1C` (centres unmarked) [Example 33, 3-((3-butyl-7-(ethylthio)-5-(4-fluorophenyl)-2-methyl-1,1-dioxido-2,3,4,5-tetrahydro-1,2,5-benzothiadiazepin-8-yl)oxy)-2-hydroxypropanoic acid]: in data set [1], the Papp A→B at 120 min, 10 μM was 2.2 ×10⁻⁶ cm/s and the Papp B→A at 120 min, 10 μM is 4.3 ×10⁻⁶ cm/s. Besides, the concentration for half-maximal inhibition (IC50) at Human IBAT was found to be 117 nM.

On to `CCCCC1CN(c2ccccc2)c2cc(SC)c(OCC3(C(=O)O)CC3)cc2S(=O)(=O)N1C` (single isomer, unassigned) [4, enantiomer 2], for which, in data set [1], the Papp A→B at 120 min, 10 μM was found to be 18.8 ×10⁻⁶ cm/s and the Papp B→A at 120 min, 10 μM was 13 ×10⁻⁶ cm/s. In addition, the IC50 at Human IBAT was 294 nM.
